According to patent US10947202B2, “Sodium ion channel inhibitors and pharmaceutically acceptable salts and polymorphs thereof and uses thereof” (SHANGHAI HAIYAN PHARMACEUTICAL TECHNOLOGY CO., LTD., priority 2017, dated 2021):

How the values were obtained:
hNav1.7 = hNav1.7 (Homo sapiens, UniProt Q15858); test: Manual patch clamp experiment of hNav1.7 channel (CHO-hNav1.7 stable cell line); format: cell-based; conditions: for inhibition at 0.1 µM: read-out: Inhibition of Nav1.7, 100 nM(%); for inhibition at 1 µM: read-out: Inhibition of Nav1.7, 1000 nM(%)
Chain of hNav1.7 (Q15858 whole entry): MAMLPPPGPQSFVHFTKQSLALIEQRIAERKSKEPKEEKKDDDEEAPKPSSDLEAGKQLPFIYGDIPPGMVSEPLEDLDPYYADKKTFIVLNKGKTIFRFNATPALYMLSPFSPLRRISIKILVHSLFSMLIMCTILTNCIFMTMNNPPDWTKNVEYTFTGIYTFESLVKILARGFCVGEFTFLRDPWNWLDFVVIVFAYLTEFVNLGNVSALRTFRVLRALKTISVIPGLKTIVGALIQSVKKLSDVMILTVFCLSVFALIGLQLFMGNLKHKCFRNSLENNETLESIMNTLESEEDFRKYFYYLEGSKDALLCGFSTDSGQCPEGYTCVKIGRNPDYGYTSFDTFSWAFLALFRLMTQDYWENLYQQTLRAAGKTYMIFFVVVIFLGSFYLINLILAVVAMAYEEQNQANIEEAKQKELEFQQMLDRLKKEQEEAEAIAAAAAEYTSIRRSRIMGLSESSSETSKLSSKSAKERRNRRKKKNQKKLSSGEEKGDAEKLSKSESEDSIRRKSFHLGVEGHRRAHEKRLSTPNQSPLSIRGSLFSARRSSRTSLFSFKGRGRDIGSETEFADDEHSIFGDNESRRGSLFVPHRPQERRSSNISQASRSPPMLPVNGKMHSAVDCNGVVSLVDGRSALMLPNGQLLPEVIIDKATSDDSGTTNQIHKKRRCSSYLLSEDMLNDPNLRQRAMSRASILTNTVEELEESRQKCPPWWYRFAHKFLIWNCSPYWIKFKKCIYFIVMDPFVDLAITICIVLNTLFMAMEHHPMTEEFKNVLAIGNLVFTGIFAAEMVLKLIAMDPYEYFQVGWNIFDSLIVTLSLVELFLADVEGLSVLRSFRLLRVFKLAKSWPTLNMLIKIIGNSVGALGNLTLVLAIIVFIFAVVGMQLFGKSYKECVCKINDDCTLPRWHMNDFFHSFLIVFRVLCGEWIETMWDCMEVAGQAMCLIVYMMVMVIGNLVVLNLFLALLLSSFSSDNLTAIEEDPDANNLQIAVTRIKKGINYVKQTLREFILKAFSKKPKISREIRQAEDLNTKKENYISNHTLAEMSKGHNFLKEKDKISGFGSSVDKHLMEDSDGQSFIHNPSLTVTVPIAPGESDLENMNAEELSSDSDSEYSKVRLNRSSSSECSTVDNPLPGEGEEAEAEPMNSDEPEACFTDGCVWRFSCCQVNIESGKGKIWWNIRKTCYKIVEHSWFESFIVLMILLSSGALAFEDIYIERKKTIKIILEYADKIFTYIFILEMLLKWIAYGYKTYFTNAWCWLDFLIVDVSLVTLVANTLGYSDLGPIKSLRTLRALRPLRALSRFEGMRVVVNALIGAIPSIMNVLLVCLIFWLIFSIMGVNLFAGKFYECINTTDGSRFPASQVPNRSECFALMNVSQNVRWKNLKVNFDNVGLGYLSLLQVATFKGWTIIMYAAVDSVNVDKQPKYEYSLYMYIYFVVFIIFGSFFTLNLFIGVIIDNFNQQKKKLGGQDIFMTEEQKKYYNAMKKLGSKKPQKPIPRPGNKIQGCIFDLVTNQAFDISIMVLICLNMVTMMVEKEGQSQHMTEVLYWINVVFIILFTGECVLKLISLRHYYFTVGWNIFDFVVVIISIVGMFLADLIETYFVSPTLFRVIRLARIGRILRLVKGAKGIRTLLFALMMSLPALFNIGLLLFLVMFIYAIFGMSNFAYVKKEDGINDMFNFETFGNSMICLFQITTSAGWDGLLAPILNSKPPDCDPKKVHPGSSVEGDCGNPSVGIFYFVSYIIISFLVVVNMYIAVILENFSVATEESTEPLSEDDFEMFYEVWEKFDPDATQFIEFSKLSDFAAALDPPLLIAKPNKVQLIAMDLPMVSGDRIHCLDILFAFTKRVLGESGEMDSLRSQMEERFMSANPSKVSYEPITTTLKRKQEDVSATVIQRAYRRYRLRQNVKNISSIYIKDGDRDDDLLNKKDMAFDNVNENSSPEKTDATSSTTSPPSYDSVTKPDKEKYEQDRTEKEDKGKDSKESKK
Source text: Patch voltage clamp electrophysiology allows for the direct measurement and quantification of current block of voltage-gated sodium channels (NaV's), and allows the determination of the time and voltage-dependence of block which has been interpreted as differential binding to the resting, open and inactivated states of the sodium channel to reflect the compound's inhibitory or activating effects (Hille, B., Journal of General Physiology (1977), 69: 497-515).
Representative compounds of the present disclosure were performed using a manual patch clamp experiment and the purpose of this study was to test the effect of compounds on this ion channel current on a stable cell line transfected with a specific ion channel using a manual patch clamp method, the used stable cell lines CHO-hNav1.7 and HEK-hNav1.5 were from Genionics and WuXi Apptec (Shanghai) respectively.
Manual patch clamp experimental program is as follows:
(1) Preparation of solutions and compounds: The whole cell patch clamp technique was used to record hNav1.7 and hNav1.5 currents. In the experiment, the composition of extracellular fluid (mM): HEPES: 5, NaCl: 40, KCl: CaCl2:1, MgCl2:1, CdCl2:0.1, TEA-Cl: 20. The pH was adjusted to 7.3 with NaOH and the osmotic pressure was adjusted to 310-320 mOsm with sucrose, filtered and stored at 4° C. The composition of the intracellular fluid (mM): HEPES: 10, NaCl: 10, CsOH: 5, CsF: 140, EGTA: 1. The pH was adjusted to 7.3 with CsOH and the osmotic pressure was adjusted to 280-290 mOsm with sucrose, filtered and stored at −20° C.
The positive control and the test compound were firstly dissolved in 100% DMSO (Sigma-Aldrich, D2650), configured as stock solution at a concentration (100 nM, 1000 nM).) The above stock solution was serially diluted with DMSO prior to the experiment, the solution was further diluted with extracellular solution to obtain the desired concentration of the test solution.
(2) Manual Patch Clamp Experiment: The cell suspension was added to a 35 mm petri dish and placed on an inverted microscope stage, the cells were perfused with an extracellular fluid and the flow rate was 1-2 mL/min after cell adherence. The glass microelectrode was pulled in two steps by a microelectrode puller with an inlet water resistance of 2-5 MΩ. A/D-D/A digital-analog conversion was performed by Digidata 1440 (Molecular Devices) and pCLAMP software (version 10.2, Molecular Devices) for stimulation and signal acquisition; the signal was amplified by patch clamp amplifier (Multiclamp 700B, Molecular Devices), filtering is 4 KHz.
Two different voltage stimulation procedures were used in the hNav1.7 and hNav1.5 manual patch clamp experiments.
One is the inactivation stimulation program, the clamp potential is set at V1/2 of the corresponding channel, ie about 50% of the channels are inactivated, then the voltage is applied to −120 mV for 50 ms, then depolarized to −10 mV for 20 ms leading to sodium current, and finally back to the clamp potential. This stimulation program can also be called channel state-dependent voltage stimulation program.
The other is the non-inactivation stimulation program, the clamp potential is maintained at −120 mV, voltage stimulation is given to −10 mV for 20 ms leading to sodium current, and finally back to the clamp potential. That is all channels have not experienced inactivation status, but activate directly from the resting state under the conditions of the stimulation program.
The time intervals of these two voltage stimulation program were 10 s. The inhibitory effect of the compound was calculated by the change of the current before and after dosing, the IC50 value was fitted by the Hill equation. […] The results are shown in Table 33 and Table 34, respectively.

[1] = Metabolism stability test in liver microsomes; format: in vitro ADME; conditions: human liver microsomes
Method: Buffer A: 1 L solution of 100 mM potassium dihydrogen phosphate containing 1 mM EDTA (Sigma, V900157-100G) was prepared.
Buffer B: 1 L solution of 100 mM dipotassium hydrogen phosphate containing 1 mM EDTA was prepared.
Buffer C: 700 mL of buffer B was taken out and titrated with buffer A to pH 7.4.
2.1 10 μl of 10 mM compound to be tested and 10 μl of 10 mM ketanserin were taken out and 190 μl of pure acetonitrile was added to each of them to prepare 500 μM compound to be tested and ketanserin, respectively.
2.2 20 μl (20 mg/mL) of liver microsomes (Corning Lot. NO. 4133007) stock solution was added to 513.4 μl of buffer C on wet ice. 0.75 mg/mL liver microsomal solution was obtained.
2.3 1.5 μl of each of the above-mentioned compound to be tested and ketanserin solution was added to 498.5 μl of liver microsomal solution (0.7 5 mg/mL) respectively on wet ice. 1.5 μM mixed solution of compound to be tested and 1.5 μM mixed solution of ketanserin were obtained.
2.4 At the time points 0, 5, 15, 30, 45, and 60 min, 30 μl of the mixed solution of compound to be tested and 30 μl of the mixed solution of ketanserin were dispensed into the reaction plate on wet ice, respectively.
2.5 5 mg reduced coenzyme II (Roche, 10621706001) was weighed and dissolved in 1 mL of buffer C. 6 mM reduced coenzyme II solution was obtained. The reduced coenzyme II solution was dispensed into the reaction plate.
2.6 Imipramine was dissolved to give a 10 mM solution. 10 μl imipramine solution was added to 100 mL of blank acetonitrile to generate the internal reference.
2.7 At 0 min, 135 μL of iced acetonitrile (Merck (Lot. 1778229518)) containing the internal reference was added to each well and then 15 μL of buffer C was added.
2.8 The reaction plate was placed into a 37° C. water bath incubator for 5 min. In the reaction plate, 15 μL of reduced coenzyme II solution was added to each well to initiate the reaction, and the time keeping was started. At the time points of 5, 15, 30, 45, and 60 min, 135 μL of iced acetonitrile containing the internal reference was added to each well to terminate the reaction.
2.9 The reaction plate was sealed with an aluminum film, placed on a vibration mixer and shaken at 500 rpm for 5 min. The plate was then centrifuged in a centrifuge at 3750 rp for 15 min.
2.10 The sample was diluted with pure water in accordance with the ratio of 1:1 and detected by LC/MS. […]
Wherein, the K value and the proportional factor were calculated by those skilled in the art according to the methods described in the prior art and contained in the instructions of the liver microsome product.

[2] = Crystal form stability on shaking in solvent or heating (XRPD); format: physicochemical; conditions: heated to 150° C.
Method: The reaction solution in the step 4 of Example 1 was poured into water, extracted with ethyl acetate, dried and concentrated, ethanol was added to dissolve and the solution was evaporated, 1N hydrochloric acid and ethyl acetate were added and stirred for 1-2 h, filtered, a solid product which was the crystal form III of free base was obtained, the X-ray powder diffraction pattern is shown in FIG. 11A (the 2θ angle has been marked), the DSC/TGA/DVS patterns are shown in FIGS. 11B, 11C and 11D. According to the DSC pattern, there is an inflection point around 100° C., and the sample has a melting absorption peak at 181.9° C. […] The sample was shaken in ACE and MeOH at 50° C. for 1 day, and the crystal form was unchanged.
The reaction solution in the step 4 of Example 1 was poured into water, extracted with ethyl acetate, dried and concentrated to retain a small amount of ethyl acetate, 1N hydrochloric acid was added and stirred for 1 h, filtered, the filter cake was washed with ethanol and then filtered to obtain a solid product which was the crystal form IV of free base was obtained. The X-ray powder diffraction pattern is shown in FIG. 12A (the […] has been marked), the DSC/TGA/DVS patterns are shown in FIGS. 12B, 12C and 12D. […] The sample was shaken in ACE at 50° C. for 1 day, and the crystal form was unchanged. […]

[3] = Hygroscopicity experiment (DVS); format: physicochemical
Source text: The Dynamic Vapor Sorption (DVS) curve was acquired on the DVS Intrinsic of Surface Measurement Systems.
The DVS results for crystal forms A, D, E-3 and F are shown in FIG. 1E, FIG. 4F, FIG. 7E and FIG. 8E, respectively.

O=C(NS(=O)(=O)C1CC1)c1cc(C2CC2)c(CN2CCN(Cc3cc(Cl)cc(Cl)c3)CC2)cc1F [C1]
inhibition at 0.1 µM (hNav1.7): 49.2%
inhibition at 1 µM (hNav1.7): 64.8%

CS(=O)(=O)NC(=O)c1cc(C2CC2)c(CN2CCN(Cc3ccc(Cl)c(Cl)c3)CC2)cc1F [C2]
inhibition at 0.1 µM (hNav1.7): 52%
inhibition at 1 µM (hNav1.7): 64%

O=C(NS(=O)(=O)C1CC1)c1cc(Cl)c(CN2CCN(Cc3ccc(Cl)cc3)CC2)cc1F [C6]
inhibition at 1 µM (hNav1.7): 67.2%

CS(=O)(=O)NC(=O)c1cc(Cl)c(CN2CCN(c3ccc(C4CC4)c(Cl)c3)CC2)cc1F [C12, reference compound]
Clearance ratio [1]: 78.28 mL/min/kg

Cc1cc(N2CCN(Cc3cc(F)c(C(=O)NS(C)(=O)=O)cc3Cl)CC2)ccc1Cl [C13, reference compound]
Clearance ratio [1]: 138.91 mL/min/kg

Cc1cc(N2CCN(Cc3cc(F)c(C(=O)NS(=O)(=O)C4CC4)cc3Cl)CC2)ccc1Cl [crystal form VI, 5-chloro-4-((4-(4-chloro-3-methylphenyl)piperazin-1-yl)methyl)-N-(cyclopropylsulfonyl)-2-fluorobenzamide]
crystal form after heating [2]: converted into crystal form I
hygroscopicity (DVS curve) [3]: slightly hygroscopic

Cc1cc(N2CCN(Cc3cc(F)c(C(=O)NS(=O)(=O)C4CC4)cc3Cl)CC2)ccc1Cl [crystal form VII, 5-chloro-4-((4-(4-chloro-3-methylphenyl)piperazin-1-yl)methyl)-N-(cyclopropylsulfonyl)-2-fluorobenzamide]
crystal form after heating [2]: converted into crystal form I
hygroscopicity (DVS curve) [3]: slightly hygroscopic
